Reference: patent EP0628545A1, “13,14-Dihydro-PGF2BETA and its isopropyl ester” (ONO PHARMACEUTICAL CO., LTD., priority 1993, dated 1994)

Columns and labels:
[1] = test system: intraocular pressure; test: Reducing effect of intraocular pressure after instillation into the rabbit eye (Experiment 1); type: in vivo, Japanese White rabbits; settings: for Δ IOP, Reducing Effects of Intraocular Pressure: 50 µl instilled into left eye, vehicle-corrected, average of three samples; for Change in I.O.P.: area over 0 mmHg minus area under 0 mmHg of the IOP-time graph, 0-6 hr, minus = reduction
Protocol: For example, in a standard laboratory test the following data shown in Table 1 and 2 and in the accompanying Figure 1 were obtained. Average of the value of three samples are shown as each data. In the Figure reduction in intraocular pressure is plotted against time after administration for the compound of the invention and three comparison compounds.
Male Japanese White rabbits weighing about 3.0 kg were lightly held and the intraocular pressure was measured by Applanation Pneumatonograph after corneal anesthesia with instillation of 0.4% oxybuprocaine hydrochloride solution.
A 0.1% solution of a test compound was dissolved in vehicle which contains 2.5% conc. glycerol and 2.0% Polysorbate 80 in sterile purified water. The test solution at volume of 50 µl was instilled into left eye of each rabbit and the right eye remained untreated. As a control, the vehicle was instilled into left eye in a control group. Δ IOP (mmHg), which is an index of intraocular pressure-reducing effect, were calculated using below formula. IOP = (IOPt - IOP₀) - (IOPvt - IOPv0 ) [formula] IOPt : IOP at t hr after instillation of a test solution IOPvt : IOP at t hr after instillation of vehicle IOP₀ : IOP just before instillation of a test solution IOPv0 : IOP just before instillation of vehicle
Taking into consideration the continuous time of occurrence of the reduction effect and the intensity of the effect, the superiority of the compound of the present invention to the compared compound is clear. On the graph 1, the squares i.e. reducing effect of intraocular pressure, were calculated: That is, squares under 0 mmHg put minus and squares over 0 mmHg put plus, and the total squares are calculated and the values are shown in the Table 2.
On the graph of the intraocular pressure in course of time, area of the square (mmHg x hr) in elevation i.e. square over 0 mmHg and area of the square (mmHg x hr) in the reduction i.e. square under 0 mmHg were calculated and from the value of the former was subtracted the one of the latter. The minus-resulted value means reduction of intraocular pressure and the plus-resulted value means elevation of intraocular pressure.

[2] = Detection of compound and metabolite in eye tissue homogenates by liquid chromatography-mass spectrum after eye drop administration (Experiment 2); type: in vivo, Japanese White rabbits; settings: 1 Hr after the last administration; for detection in the homogenates of aqueous humor, cornea or iris/ciliary body: eye drop solution of Example 1 three times every 5 mins in saccus conjunctivae
Protocol: Japanese White rabbits weighing 3.0 kg were used. Eye drop solution of Example 1 was administered three times every 5 mins in saccus conjunctivae. 1 Hr after the last administration, aqueous humor, cornea and iris/ciliary body were collected and homogenized respectively. The homogenates were measured by liquid chromatography-Mass spectrum.

[3] = 0 hr after administration (baseline), 0.1% solution
[4] = 1 hr after administration, 0.1% solution
[5] = 2 hr after administration, 0.1% solution
[6] = 4 hr after administration, 0.1% solution
[7] = 6 hr after administration, 0.1% solution

| continued elevation of the intraocular pressure ([1]; 0.1% solution) | initial elevation of the intraocular pressure ([1]; 0.1% solution) | detection in the homogenates of aqueous humor, cornea or iris/ciliary body [2] | bulbar and palpebral conjunctival hyperemia ([1]; after instillation of 0.1% solution) | Structure (SMILES) | Δ IOP, Reducing Effects of Intraocular Pressure [1, 3] | time after administration at which the reducing effect appeared ([1]; 0.1% solution) | Δ IOP, Reducing Effects of Intraocular Pressure [1, 4] | Δ IOP, Reducing Effects of Intraocular Pressure [1, 5] | Δ IOP, Reducing Effects of Intraocular Pressure [1, 6] | Δ IOP, Reducing Effects of Intraocular Pressure [1, 7] | Change in I.O.P. ([1]; 0.1% solution) | hydrolysis on cornea ([2]; eye drop solution of Example 1) | maximum reduction of IOP ([1]; 0.1% solution) | activity (reduction of intraocular pressure) reached ([1]; at 2 hrs after administration, same level maintained till 6 hrs) |
| --- | --- | --- | --- | --- | --- | --- | --- | --- | --- | --- | --- | --- | --- | --- |
| continuous elevation till 6 hrs | showed initial elevation | – | – | CCCCC[C@H](O)/C=C/[C@@H]1[C@@H](C/C=C\CCCC(=O)OC(C)C)[C@@H](O)C[C@@H]1O [Compared compound 1, 11-epi-PGF2α isopropyl ester] | 0 mm Hg | > 6 h | 3.5 mm Hg | 1.5 mm Hg | 1.5 mm Hg | 0.2 mm Hg | 8.95 mmHg x hr | – | – | – |
| – | extremely strong initial elevation | – | – | CCCCC[C@H](O)/C=C/[C@@H]1[C@@H](C/C=C\CCCC(=O)OC(C)C)[C@@H](O)C[C@H]1O [Compared compound 2, PGF2α isopropyl ester] | 0 mm Hg | ~4 h | 13.7 mm Hg | 3.7 mm Hg | -1 mm Hg | -5.8 mm Hg | 11.36 mmHg x hr | – | – | – |
| – | showed initial elevation | – | – | CCCCC[C@H](O)CC[C@@H]1[C@@H](C/C=C\CCCC(=O)OC)[C@@H](O)C[C@H]1O [Compared compound 3, 13,14-dihydro-PGF2α methyl ester] | 0 mm Hg | ~4 h | 3.3 mm Hg | -1.3 mm Hg | -0.7 mm Hg | -4.3 mm Hg | -4.35 mmHg x hr | – | – | – |
| – | did not show initial elevation | not detected | not observed | CCCCC[C@H](O)CC[C@@H]1[C@@H](C/C=C\CCCC(=O)OC(C)C)[C@H](O)C[C@H]1O [Example 1, 13,14-dihydro-PGF2β isopropyl ester] | 0 mm Hg | 1 h | -1.8 mm Hg | -5.5 mm Hg | -5.5 mm Hg | -5.3 mm Hg | -26.35 mmHg x hr | hydrolysed into the compound of Example 2 | 5.5 mmHg | 5.5 mmHg |
| – | – | detected | – | CCCCC[C@H](O)CC[C@@H]1[C@@H](C/C=C\CCCC(=O)O)[C@H](O)C[C@H]1O [Example 2, 13,14-dihydro-prostaglandin F2β] | – | – | – | – | – | – | – | – | – | – |
